Like-named read-outs stand apart in the source and are kept apart here.
Assays:
[1] = molecular target: EGFR WT (wild type EGFR) (Homo sapiens (Human), UniProt P00533); assay: In vitro enzymatic TR-FRET (HTRF KinEASE-TK) kinase assay, EGFR WT; type: biochemical; details: kinase activity, TR-FRET; read-out: EGFR (WT) IC50
How it was run: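 IC50 derived from the 665/615 nm TR-FRET ratio after 1 h with streptavidin-XL665 and Cryptate-labelled TK antibody. Kinase reaction ran 40 min at room temperature with biotin-TK substrate and ATP, following 10 min compound–enzyme preincubation. Buffer: 5 mM MgCl2, 1 mM MnCl2, 1 mM DTT.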

[2] = molecular target: EGFR L858R/T790M/C797S (Homo sapiens (Human), UniProt P00533, C797S/L858R/T790M); assay: In vitro enzymatic TR-FRET (HTRF KinEASE-TK) kinase assay, EGFR L858R/T790M/C797S; type: biochemical; details: kinase activity
Sequence of EGFR L858R/T790M/C797S (P00533 25-1210 T790M/C797S/L858R): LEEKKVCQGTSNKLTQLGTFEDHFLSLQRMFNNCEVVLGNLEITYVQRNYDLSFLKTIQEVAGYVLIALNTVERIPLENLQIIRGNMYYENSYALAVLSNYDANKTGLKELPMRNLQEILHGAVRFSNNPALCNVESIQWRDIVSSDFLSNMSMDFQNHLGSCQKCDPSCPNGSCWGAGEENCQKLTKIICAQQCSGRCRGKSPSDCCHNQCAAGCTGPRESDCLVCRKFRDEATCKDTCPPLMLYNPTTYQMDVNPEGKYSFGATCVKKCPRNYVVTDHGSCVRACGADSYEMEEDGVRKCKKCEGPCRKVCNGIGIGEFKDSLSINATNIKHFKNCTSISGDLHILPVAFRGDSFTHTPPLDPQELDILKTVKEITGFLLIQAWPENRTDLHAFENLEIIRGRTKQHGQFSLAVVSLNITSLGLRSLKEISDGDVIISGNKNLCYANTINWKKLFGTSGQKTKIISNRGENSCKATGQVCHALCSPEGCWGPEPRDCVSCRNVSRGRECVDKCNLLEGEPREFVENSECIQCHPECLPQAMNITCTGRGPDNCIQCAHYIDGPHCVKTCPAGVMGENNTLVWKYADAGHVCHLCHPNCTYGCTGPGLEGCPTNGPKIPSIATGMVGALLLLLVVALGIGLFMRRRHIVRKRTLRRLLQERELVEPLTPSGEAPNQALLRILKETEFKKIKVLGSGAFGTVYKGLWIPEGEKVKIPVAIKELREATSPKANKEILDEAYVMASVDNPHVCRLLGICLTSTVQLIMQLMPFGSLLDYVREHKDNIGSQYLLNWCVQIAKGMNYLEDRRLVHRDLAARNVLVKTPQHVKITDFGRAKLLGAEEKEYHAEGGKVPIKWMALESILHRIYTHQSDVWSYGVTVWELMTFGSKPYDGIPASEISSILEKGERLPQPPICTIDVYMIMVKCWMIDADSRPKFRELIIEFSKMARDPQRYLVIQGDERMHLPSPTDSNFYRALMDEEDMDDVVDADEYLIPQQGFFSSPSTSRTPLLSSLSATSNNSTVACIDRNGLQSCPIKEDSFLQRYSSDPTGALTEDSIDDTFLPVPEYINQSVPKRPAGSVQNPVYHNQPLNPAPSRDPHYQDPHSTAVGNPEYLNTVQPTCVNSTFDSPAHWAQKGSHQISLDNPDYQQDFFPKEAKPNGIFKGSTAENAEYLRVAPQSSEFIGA
Method: (I) In Vitro Enzymatic Experiment for EGFR WT and EGFR L858R/T790M/C797S
In the assay, the inhibition effect of the compound on the kinase activity of EGFR WT (wild type EGFR) and EGFR L858R/T790M/C797S was tested by adopting a time-resolved fluorescence resonance energy transfer (TR-FRET) method, and half maximal inhibitory concentration IC50 of the compound on the kinase activity of EGFR was obtained.
EGFR recombinase and EGFR L858R/T790M/C797S recombinase, purchased from Signalchem.
HTRF KinEASE-TK kit, purchased from Cisbio.
DTT, MnCl2, and MgCl2, purchased from Sigma.
ATP, purchased from Promega.
Brigatinib, purchased from Selleck.
1) 1× working solution was prepared: 5 mM MgCl2; 1 mM DTT; 1 mM MnCl2 and 1× kinase buffer (in kit).
2) […] of gradiently-diluted compound was transferred to a 384-well plate using Echo 550 (Labcyte).
3) 5 μL of 2× EGFR WT or EGFR L858R/T790M/C797S recombinase solution was added to the 384-well plate, and the plate was incubated at room temperature for 10 min.
4) 5 μL of 2× TK-substrate-biotin substrate solution (containing ATP) was added to the 384-well plate, and the plate was incubated at room temperature for 40 min.
5) 5 μL of assay solution containing Sa-XL 665 HTRF and 5 μL of TK-antibody-Cryptatewas were added to the plate, and the plate was incubated at room temperature for 1 h.
6) The fluorescence signal values at 615 nm and 665 nm were measured for each well using an Envision microplate reader (PerkinElmer).
7) The ratio of fluorescence signal values at 665 nm and 615 nm was calculated for each well.
8) Data analysis was performed using GraphPad Prism software to give the IC50 for compounds.

[3] = system: A431 cells (EGFR WT); assay: A431 cell proliferation inhibition assay (CellTiter-Glo); type: cell-based
How it was run: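 CellTiter-Glo luminescence quantified growth after 72 h treatment with serially diluted compounds (final DMSO 0.1%), following a 24 h attachment period at 37° C, 5% CO2. Signal read after 30 min dark incubation at room temperature, with half-maximal growth inhibition reported as IC50.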

[4] = system: Ba/F3_Del19/T790M/C797S cells; assay: Ba/F3_Del19/T790M/C797S cell proliferation inhibition assay (CellTiter-Glo); type: cell-based
How it was run: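 IC50 for growth inhibition came from CellTiter-Glo chemiluminescence after a 72 h, 37° C compound exposure. Ba/F3_Del19/T790M/C797S cells were plated at 700/well, and compound was dosed in gradient with 0.1% final DMSO.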

[5] = system: Ba/F3_L858R/T790M/C797S cells; assay: Ba/F3_L858R/T790M/C797S cell proliferation inhibition assay (CellTiter-Glo); type: cell-based
How it was run: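 Proliferation IC50 derived from CellTiter-Glo luminescence in Ba/F3 cells expressing triple-mutant EGFR (L858R/T790M/C797S). Cells (700/well) incubated 72 h with graded compound doses at 0.1% DMSO final, 37 °C, 5% CO2; reagent developed 30 min at room temperature in the dark.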

[6] = Homo sapiens, A-431, cell proliferation, 72 h, CellTiter-Glo, read-out: A431 EGFR WT IC50
[7] = Mus musculus, BaF3, cell proliferation, 72 h, CellTiter-Glo, read-out: Ba/F3 (Del19/T790M/C797S) IC50
[8] = Mus musculus, BaF3, cell proliferation, 72 h, CellTiter-Glo, read-out: Ba/F3 (L858R/T790M/C797S) IC50
[9] = Homo sapiens, A-431, 72 h, read-out: A431 EGFR WT IC50(nM)
[10] = Mus musculus, BaF3, 72 h, read-out: Ba/F3 (Del19/T790M/C797S) IC50(nM)
[11] = Mus musculus, BaF3, 72 h, read-out: Ba/F3 (L858R/T790M/C797S) IC50(nM)
[12] = cell proliferation, 72 h, CellTiter-Glo, read-out: A431 EGFR WT IC50
[13] = cell proliferation, 72 h, CellTiter-Glo, read-out: Ba/F3 (Del19/T790M/C797S) IC50
[14] = cell proliferation, 72 h, CellTiter-Glo, read-out: Ba/F3 (L858R/T790M/C797S) IC50

Sequence of EGFR WT (wild type EGFR) (P00533 25-1210): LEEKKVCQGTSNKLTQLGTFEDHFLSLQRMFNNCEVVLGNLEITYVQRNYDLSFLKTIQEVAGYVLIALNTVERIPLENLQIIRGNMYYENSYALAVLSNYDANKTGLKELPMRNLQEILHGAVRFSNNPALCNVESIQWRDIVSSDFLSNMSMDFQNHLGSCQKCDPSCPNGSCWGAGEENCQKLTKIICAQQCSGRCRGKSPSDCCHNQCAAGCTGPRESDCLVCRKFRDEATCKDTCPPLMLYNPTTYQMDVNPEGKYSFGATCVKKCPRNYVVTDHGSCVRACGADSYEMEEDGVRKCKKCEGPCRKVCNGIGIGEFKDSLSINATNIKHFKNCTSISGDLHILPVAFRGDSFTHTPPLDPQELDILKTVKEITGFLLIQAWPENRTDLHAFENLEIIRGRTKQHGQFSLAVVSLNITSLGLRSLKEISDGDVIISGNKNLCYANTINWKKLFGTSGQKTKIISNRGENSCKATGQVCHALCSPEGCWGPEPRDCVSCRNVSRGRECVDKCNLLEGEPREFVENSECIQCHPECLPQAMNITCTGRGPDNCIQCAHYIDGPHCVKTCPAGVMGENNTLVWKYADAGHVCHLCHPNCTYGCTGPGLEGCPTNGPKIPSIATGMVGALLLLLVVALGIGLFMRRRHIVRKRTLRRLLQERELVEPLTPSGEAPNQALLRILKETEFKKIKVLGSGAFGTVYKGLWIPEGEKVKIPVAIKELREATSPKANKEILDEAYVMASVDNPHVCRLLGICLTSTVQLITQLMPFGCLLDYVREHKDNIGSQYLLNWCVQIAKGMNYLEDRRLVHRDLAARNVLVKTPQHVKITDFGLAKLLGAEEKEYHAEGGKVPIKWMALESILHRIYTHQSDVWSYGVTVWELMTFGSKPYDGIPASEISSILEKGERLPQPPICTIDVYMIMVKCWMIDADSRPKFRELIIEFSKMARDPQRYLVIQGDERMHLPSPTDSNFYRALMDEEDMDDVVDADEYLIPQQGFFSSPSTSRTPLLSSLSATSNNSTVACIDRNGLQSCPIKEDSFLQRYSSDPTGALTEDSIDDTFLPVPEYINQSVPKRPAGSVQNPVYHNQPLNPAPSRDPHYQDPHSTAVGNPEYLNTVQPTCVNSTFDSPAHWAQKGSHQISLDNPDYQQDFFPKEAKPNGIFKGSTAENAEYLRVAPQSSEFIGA

Compound | IC50 [1] [nM] | IC50 [2] [nM] | IC50 [3, 6] [nM] | IC50 [4, 7] [nM] | IC50 [5, 8] [nM] | IC50 [3, 9] [nM] | IC50 [4, 10] [nM] | IC50 [5, 11] [nM] | IC50 [3, 12] [nM] | IC50 [4, 13] [nM] | IC50 [5, 14] [nM]
COc1cc2c(cc1Nc1ncc(C)c(Nc3ccc4nccnc4c3P(C)(C)=O)n1)-c1cnn(C)c1CCN2C [Compound 5] | < 1 | < 1 | 50 to 100 | < 10 | < 10 |  |  |  |  |  | 
COc1cc2c(cc1Nc1ncc(Br)c(Nc3ccccc3P(C)(C)=O)n1)-c1cnn(C)c1CCC2N(C)C (stereo not drawn) [Compound 78] | 1 to 10 | < 1 | 100 to 1000 | < 10 | 10 to 50 |  |  |  |  |  | 
COc1cc2c(cc1Nc1ncc(Br)c(Nc3ccc4nccnc4c3NS(C)(=O)=O)n1)-c1cnn(C)c1CCN2C(C)(C)CF [Compound 120] | 10 to 50 | 1 to 10 | 100 to 1000 | 10 to 50 | 10 to 50 |  |  |  |  |  | 
COc1cc2c(cc1Nc1nccc(Nc3ccccc3P(C)(C)=O)n1)-c1cnn(C)c1CCN2C(C)C [Compound 102] | 10 to 50 | < 1 | > 1000 | 50 to 100 | 100 to 1000 |  |  |  |  |  | 
COc1ccc(CN2Cc3cc(OC)c(Nc4ncc(Br)c(Nc5ccc6nccnc6c5P(C)(C)=O)n4)cc3-c3cnn(C)c3C2)c(OC)c1 [Compound 57] | 50 to 100 | 1 to 10 | 100 to 1000 | 10 to 50 | 50 to 100 |  |  |  |  |  | 
COc1cc2c(cc1Nc1ncc(C3CC3)c(Nc3ccccc3P(C)(C)=O)n1)-c1cnn(C)c1CCN2C [Compound 30] | 10 to 50 | < 1 | 100 to 1000 | 10 to 50 | 50 to 100 |  |  |  |  |  | 
COc1nc2c(cc1Nc1ncc(Br)c(Nc3ccc4nccnc4c3P(C)(C)=O)n1)-c1cnn(C)c1CCN2C(C)C [Compound 82] | 1 to 10 | 1 to 10 |  |  |  | > 1000 | 10 to 50 | 10 to 50 |  |  | 
COc1cc2c(cc1Nc1ncc(Br)c(Nc3ccccc3P(C)(C)=O)n1)-c1cn(C3COC3)nc1CCN2C(C)C [Compound 77B] | 100 to 1000 | 1 to 10 |  |  |  |  |  |  | 100 to 1000 | 50 to 100 | 50 to 100
COc1cc2c(cc1Nc1ncc(Br)c(Nc3ccc4nccnc4c3N3CCCS3(=O)=O)n1)-c1cnn(C)c1CCN2C(C)C [Compound 118] | 10 to 50 | 1 to 10 | 100 to 1000 | 10 to 50 | 10 to 50 |  |  |  |  |  | 
COc1cc2c(cc1Nc1ncc(Br)c(Nc3ccc4nccnc4c3NS(C)(=O)=O)n1)-c1cnn(C)c1CCN2C1CCOCC1 [Compound 130] | 1 to 10 | < 1 | 100 to 1000 | < 10 | < 10 |  |  |  |  |  | 
COc1nc2c(cc1Nc1ncc(Br)c(Nc3ccc4nccnc4c3NS(C)(=O)=O)n1)-c1cnn(C)c1CCN2C [Compound 107] | < 1 | < 1 | 100 to 1000 | < 10 | < 10 |  |  |  |  |  | 
COc1cc2c(cc1Nc1ncc(Br)c(Nc3cccnc3P(C)(C)=O)n1)-c1cnn(C)c1CCN2C(C)C [Compound 83] | 1 to 10 | < 1 | 100 to 1000 | < 10 | 10 to 50 |  |  |  |  |  | 
CCN(c1c(Nc2nc(Nc3cc4c(cc3OC)N(C(C)C)CCc3c-4cnn3C)ncc2Br)ccc2nccnc12)S(C)(=O)=O [Compound 134] | 10 to 50 | 1 to 10 |  |  |  | 100 to 1000 | < 10 | 10 to 50 |  |  | 
COc1cc2c(cc1Nc1ncc(Br)c(Nc3ccccc3P(C)(C)=O)n1)-c1cnn(C)c1CCN2[C@@H]1CCN(C)C[C@H]1F (single isomer, unassigned) [Compound 66A] | 1 to 10 | < 1 |  |  |  |  |  |  | 100 to 1000 | < 10 | 10 to 50
COc1cc2c(cc1Nc1nccc(Nc3ccccc3P(C)(C)=O)n1)-c1cnn(C)c1CCN2C [Compound 22] | 10 to 50 | 1 to 10 | > 1000 | 10 to 50 | 100 to 1000 |  |  |  |  |  | 
COc1cc2c(cc1Nc1ncc(Br)c(Nc3ccc4nccnc4c3P(C)(C)=O)n1)-c1cnn(C)c1CCN2C1CCN(C)C[C@@H]1F (stereo partly drawn) [Compound 68] | < 1 | < 1 |  |  |  |  |  |  | 50 to 100 | < 10 | < 10
COc1cc2c(cc1Nc1ncc(Br)c(Nc3ccccc3P(C)(C)=O)n1)-c1cnn(C)c1CCN2[C@H]1CCN(C)C[C@@H]1F (single isomer, unassigned) [Compound 66B] | 1 to 10 | < 1 |  |  |  |  |  |  | 100 to 1000 | < 10 | 10 to 50
COc1cc2c(cc1Nc1ncc(Br)c(Nc3ccc4nccnc4c3NS(C)(=O)=O)n1)-c1cnn(C)c1CCN2C [Compound 35] | < 1 | < 1 | 100 to 1000 | < 10 | 10 to 50 |  |  |  |  |  | 
COc1cc2c(cc1Nc1ncc(Br)c(Nc3ccc4nccnc4c3NS(C)(=O)=O)n1)-c1cnn(C)c1CCN2C1CCC1 [Compound 135] | 1 to 10 | 1 to 10 |  |  |  | 100 to 1000 | < 10 | < 10 |  |  | 
COc1nc2c(cc1Nc1ncc(Br)c(Nc3ccc4nccnc4c3NS(C)(=O)=O)n1)-c1cnn(C)c1CCN2C(C)C [Compound 86] | 1 to 10 | 1 to 10 | 100 to 1000 | < 10 | 10 to 50 |  |  |  |  |  | 
COc1cc2c(cc1Nc1ncc(Cl)c(Nc3ccccc3P(C)(C)=O)n1)-c1cnn(C)c1CCN2C(C)C [Compound 45] | 1 to 10 | < 1 | 100 to 1000 | < 10 | 10 to 50 |  |  |  |  |  | 
